Source: patent publication US8017346B2, “Method of quantifying the G protein-coupled receptor (GPCR)/G protein coupling using a cell membrane array” (Universidad Del Pais Vasco, priority 2005, dated 2011)
Peptide text beside a SMILES is read from it.

Tested on: galanin receptors
Assay: [35S]GTPγS autoradiography on tissue membrane arrays with galanin receptor ligands
Assay type: biochemical, rat
Conditions: for [35S]GTPγS fixing in the presence of ligand versus baseline: pituitary gland membranes, tissue array (FIG. 4); for effect on the action of galnon on [35S]GTPγS fixing: combination with galnon, tissue arrays (FIG. 5)
From the text: 5 male Sprague Dawley rats (250-275 g) were anesthetized and sacrificed according to the guide approved by the Ethics Committee of the Faculty of Medicine of the University of the Basque Country, following the internationally accepted guidelines (86/609/EEC). The organs and tissue which were to be used in the experiment (pancreas, stomach, small intestine, spleen, heart, lung, liver, testicle, vas deferens, kidney, suprarenal glands, bone marrow and brain: frontal cortex, striatum, brain stem, pituitary gland, olfactory nuclei, hippocampus, hypothalamus, thalamus, colliculus and cerebellum) were then removed. These samples were stored at −70° C. until the experiment was carried out.
The tissue samples (1 g) were homogenized using a teflon-glass homogenizer (10 strokes at 1,500 rpm) in 30 volumes of homogenization buffer [1 mM ethylene glycol-bis(β-aminoethyl)-N,N,N′,N′-tetraacetic acid (EGTA), 3 mM MgCl2, 1 mM dithiothreitol (DTT) and 50 mM Tris-HCl, pH 7.4] supplemented with […] sucrose. The crude homogenate was centrifuged at 3,000×g and at 4° C. for 5 minutes and the resulting supernatant was again centrifuged at 40,000×g for 10 minutes (4° C.). The pellet was washed in 20 volumes of homogenization buffer and re-centrifuged in the same conditions. Aliquots were carried out and stored at −70° C. The protein content was determined according to the Bradford method [Bradford M M., Anal Biochem 1976; 72:248-54] using bovine serum albumin (BSA) as a standard.
1 mg/ml aliquots of each tissue were taken and with this suspension, 1 μl microspots were made on glass supports (slides) which were previously treated with concentrated orthophosphoric acid (85%); to that end, the slides were first washed with acetone and then with anhydrous isopropanol, they were dried and finally submersed in concentrated orthophosphoric acid (85%) for 24 hours, they were washed with distilled water (Millipore) and air-dried. The arrays were frozen at −70° C. until the experiment was carried out.
The slides with tissue sections were allowed to dry for 15 minutes at room temperature. The tissue section were then pre-incubated in assay buffer at pH 7.4 [50 mM Tris-HCl, 3 mM MgCl2, 0.2 mM EGTA, 100 mM NaCl, 3 mU/ml adenosine deaminase] for 20 minutes at room temperature to eliminate, as much as possible, the presence of endogenous neurotransmitters; afterwards, the sections were pre-incubated again in the assay buffer supplemented with guanosine diphosphate (GDP) (2 mM) and DTT (1 mM).
The slides were then incubated for 2 hours at 30° C. in the previous assay buffer, to which the following substances were added according to the different conditions of the experiment:
Baseline: 0.04 nM [^35S] GTPγS
Activated: 0.04 nM [^35S] GTPγS+agonist
Inhibited: 0.04 nM [^35S]GTPγS+agonist+antagonist
Non-specific: 0.04 nM [^35S] GTPγS+10 μM GTPγS
Once this time had elapsed, 2 washings of 15 minutes in the buffer 50 mM Tris-HCl, pH 7.4 at 4° C. were carried out. After the second washing, the sections were submersed in distilled water at 4° C. to eliminate the salts and the slide was dried by means of applying a cold air current.
The slides with the corresponding sections were then exposed to a radiosensitive film (Kodak Biomax MR) which was developed in a manner similar to a photographic film. The labeling was quantified according to the different gray densities at nCi/g of tissue equivalent. To that end, each film was exposed together with the previously calibrated commercial standards (Amersham). The quantification was carried out with microscopic anatomical resolution in a computerized image analysis system, using NIH-image software, of G protein activation.
The following ligands were used to study [^35S] GTPγS fixing in the absence (baseline) and in the presence of galanin receptor ligands: galanin, galnon, gal (2-11), M15 [galanin-(1-13)-substance P-5-11 amide], M35 [galanin-(1-13)-bradykinin-(2,9) amide] and M40 [galanin-(1-13)-[…]amide].

Molecule	[35S]GTPγS fixing in the presence of ligand versus baseline	effect on the action of galnon on [35S]GTPγS fixing
Cc1cc(=O)oc2cc(NC(=O)[C@H](CCCCN)NC(=O)[C@H](CC3CCCCC3)NC(=O)OCC3c4ccccc4-c4ccccc43)ccc12 [galnon] (HELM PEPTIDE1{[O=C(OCC1c2ccccc2-c2ccccc21)[*:2]].[Cha].K.[Cc1cc(=O)oc2cc(N[*:1])ccc12]}$$$$V2.0)	increase	–
galanin-(1-13)-substance P-5-11 amide [M15]	increase	–

Results, then the molecule that gave them:

[35S]GTPγS fixing in the presence of ligand versus baseline	effect on the action of galnon on [35S]GTPγS fixing	Molecule
increase	–	gal (2-11): galanin receptor ligand
increase	antagonized	galanin-(1-13)-Pro-Pro-Ala-Leu-Ala-Leu-Ala-Leu-Ala amide [M40]
increase	antagonized	galanin-(1-13)-bradykinin-(2,9) amide [M35]
